This passage reports EC50 results from patent publication US20220177538A1, “CO-AGONISTS AT GLP-1 AND GIP RECEPTORS SUITABLE FOR ORAL DELIVERY” (Novo Nordisk A/S, priority 2020, published 2022).

The assay addresses T1, human GIP receptor (Homo sapiens, UniProt P48546).
T1 construct: expressed in transfected cells; host or cells: BHK (parent line BHKTS13), clone BHK CRE luc2P hGIPR
T1 sequence (P48546 22-466): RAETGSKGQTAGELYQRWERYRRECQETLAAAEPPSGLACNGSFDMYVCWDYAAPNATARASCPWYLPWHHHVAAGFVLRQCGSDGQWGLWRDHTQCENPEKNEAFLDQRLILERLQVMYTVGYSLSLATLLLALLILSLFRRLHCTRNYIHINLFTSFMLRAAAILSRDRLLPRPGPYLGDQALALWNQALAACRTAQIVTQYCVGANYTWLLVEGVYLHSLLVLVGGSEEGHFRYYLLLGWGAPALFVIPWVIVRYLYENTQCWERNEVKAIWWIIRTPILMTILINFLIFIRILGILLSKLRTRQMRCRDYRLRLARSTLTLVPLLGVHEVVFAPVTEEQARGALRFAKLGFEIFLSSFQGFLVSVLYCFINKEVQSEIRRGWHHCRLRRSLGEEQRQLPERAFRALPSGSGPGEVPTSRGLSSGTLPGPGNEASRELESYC
Nature of the assay: In vitro functional potency, CRE luciferase reporter, whole BHK cells (hGIPR). It is filed as cell-based. Conditions: BHK CRE luc2P hGIPR cells. The procedure, abridged: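 BHK CRE luc2P cells stably expressing hGIPR or hGLP-1R were seeded at 5000 cells/well overnight. They were treated 3 h at 37° C with a 12-point, 3.5-fold compound series in buffer with or without HSA, and luciferase luminescence was read. Values come from log(agonist)-response regression, averaging at least two replicates.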
Background: Reporter assays use an easily measured gene product as a stand-in for the process of interest.

Where [1] appears, read: hGIPR, CRE Luc 1% HSA EC50, 1% HSA.
Setting [2] is: 0% HSA, read-out: hGIPR, CRE Luc 0% HSA EC50.

The structures appear in SMILES notation. Where two headings read alike, the source gives them in different places. Starred links: 1 amine or outer side, 2 acyl side, 3 side chain; linkers in the order of their positions; H or OH if unused. Non-standard residues stand in square brackets, D forms with d. Residues, ends and D or L forms follow the SMILES beside them. Groups on a side chain read outwards from the residue. *: point of attachment. C18 diacid = O=C(O)CCCCCCCCCCCCCCCCC(=O)*; γGlu = O=C(O)[C@H](CCC(=O)[*:2])N[*:1]; εLys = N[C@@H](CCCCN[*:1])C(=O)[*:2]; Aib = CC(C)(N)C(=O)O

For orientation: EC50 means the midpoint of the concentration-response curve. Turning to `CC[C@H](C)[C@H](NC(=O)[C@H](Cc1ccccc1)NC(=O)[C@H](CCC(=O)O)NC(=O)[C@H](CCCNC(=N)N)NC(=O)[C@H](C)NC(=O)[C@H](C)NC(=O)[C@H](CCC(N)=O)NC(=O)[C@H](CCCCNC(=O)[C@@H](N)CCCCNC(=O)[C@@H](N)CCCCNC(=O)CC[C@H](NC(=O)CCCCCCCCCCCCCCCCC(=O)O)C(=O)O)NC(=O)[C@H](CCC(=O)O)NC(=O)[C@H](CC(C)C)NC(=O)[C@H](CC(C)C)NC(=O)[C@@H](NC(=O)[C@H](CO)NC(=O)[C@H](Cc1ccc(O)cc1)NC(=O)[C@H](CC(=O)O)NC(=O)[C@H](CO)NC(=O)[C@@H](NC(=O)[C@H](Cc1ccccc1)NC(=O)[C@@H](NC(=O)CNC(=O)[C@H](CCC(=O)O)NC(=O)C(C)(C)NC(=O)[C@@H](N)Cc1ccc(O)cc1)[C@@H](C)O)[C@@H](C)O)[C@@H](C)CC)C(=O)N[C@@H](CCC(=O)O)C(=O)N[C@@H](Cc1c[nH]c2ccccc12)C(=O)N[C@@H](CC(C)C)C(=O)N[C@@H](CC(C)C)C(=O)N[C@@H](CCCNC(=N)N)C(=O)NCC(=O)NCC(=O)N1CCC[C@H]1C(=O)N[C@@H](CCC(=O)O)C(=O)N[C@@H](CO)C(=O)NCC(=O)N[C@@H](C)C(=O)N1CCC[C@H]1C(=O)N1CCC[C@H]1C(=O)N1CCC[C@H]1C(=O)N[C@@H](CO)C(=O)O` [Compound 28] (H-Y[Aib]EGTFTSDYSILLEK([εLys-εLys-γGlu-C18 diacid])QAAREFIEWLLRGGPESGAPPPS-OH), a half-maximal effect (hGIPR, CRE Luc 0% HSA EC50, 0% HSA) (EC50) was put at 0.0066 nM and a half-maximal response under setting [1] (EC50) required 0.0865 nM.
Turning to `CC[C@H](C)[C@H](NC(=O)[C@H](Cc1ccccc1)NC(=O)[C@H](CCC(=O)O)NC(=O)[C@H](CCCNC(=N)N)NC(=O)[C@H](C)NC(=O)[C@H](C)NC(=O)[C@H](CCC(N)=O)NC(=O)[C@H](CCCCNC(=O)[C@@H](N)CCCCNC(=O)[C@@H](N)CCCCNC(=O)CC[C@H](NC(=O)CCCCCCCCCCCCCCCCC(=O)O)C(=O)O)NC(=O)[C@H](CCC(=O)O)NC(=O)[C@H](CC(C)C)NC(=O)[C@H](CC(C)C)NC(=O)[C@@H](NC(=O)[C@H](CO)NC(=O)[C@H](Cc1ccc(O)cc1)NC(=O)[C@H](CC(=O)O)NC(=O)[C@H](CO)NC(=O)[C@@H](NC(=O)[C@H](Cc1ccccc1)NC(=O)[C@@H](NC(=O)CNC(=O)[C@H](CCC(=O)O)NC(=O)C(C)(C)NC(=O)[C@@H](N)Cc1ccc(O)cc1)[C@@H](C)O)[C@@H](C)O)[C@@H](C)CC)C(=O)N[C@@H](CCC(=O)O)C(=O)N[C@@H](Cc1c[nH]c2ccccc12)C(=O)N[C@@H](CC(C)C)C(=O)N[C@@H](CC(C)C)C(=O)N[C@@H](C)C(=O)NCC(=O)NCC(=O)N1CCC[C@H]1C(=O)N[C@@H](CO)C(=O)N[C@@H](CO)C(=O)NCC(=O)N[C@@H](C)C(=O)N1CCC[C@H]1C(=O)N1CCC[C@H]1C(=O)N1CCC[C@H]1C(=O)N[C@@H](CO)C(=O)O` [Compound 31] (H-Y[Aib]EGTFTSDYSILLEK([εLys-εLys-γGlu-C18 diacid])QAAREFIEWLLAGGPSSGAPPPS-OH), the EC50 is, setting by setting: under setting [2], 0.0047 nM; under setting [1], 0.189 nM.
The corresponding values for `CC[C@H](C)[C@H](NC(=O)[C@H](Cc1ccccc1)NC(=O)[C@H](CCC(=O)O)NC(=O)[C@H](CCC(N)=O)NC(=O)[C@H](C)NC(=O)[C@H](C)NC(=O)[C@H](CCC(N)=O)NC(=O)[C@H](CCCCNC(=O)[C@@H](N)CCCCNC(=O)[C@@H](N)CCCCNC(=O)CC[C@H](NC(=O)CCCCCCCCCCCCCCCCC(=O)O)C(=O)O)NC(=O)[C@H](CCC(=O)O)NC(=O)[C@H](CC(C)C)NC(=O)[C@H](CC(C)C)NC(=O)[C@@H](NC(=O)[C@H](CO)NC(=O)[C@H](Cc1ccc(O)cc1)NC(=O)[C@H](CC(=O)O)NC(=O)[C@H](CO)NC(=O)[C@@H](NC(=O)[C@H](Cc1ccccc1)NC(=O)[C@@H](NC(=O)CNC(=O)[C@H](CCC(=O)O)NC(=O)C(C)(C)NC(=O)[C@@H](N)Cc1ccc(O)cc1)[C@@H](C)O)[C@@H](C)O)[C@@H](C)CC)C(=O)N[C@@H](CCC(=O)O)C(=O)N[C@@H](Cc1c[nH]c2ccccc12)C(=O)N[C@@H](CC(C)C)C(=O)N[C@@H](CC(C)C)C(=O)N[C@@H](C)C(=O)NCC(=O)NCC(=O)N1CCC[C@H]1C(=O)N[C@@H](CO)C(=O)N[C@@H](CO)C(=O)NCC(=O)N[C@@H](C)C(=O)N1CCC[C@H]1C(=O)N1CCC[C@H]1C(=O)N1CCC[C@H]1C(=O)N[C@@H](CO)C(=O)O` [Compound 29] (H-Y[Aib]EGTFTSDYSILLEK([εLys-εLys-γGlu-C18 diacid])QAAQEFIEWLLAGGPSSGAPPPS-OH) are 0.0038 nM and 0.102 nM.
